Measurements: ChEMBL document CHEMBL4732189, “A facile synthesis of diaryl pyrroles led to the discovery of potent colchicine site antimitotic agents” (Eur J Med Chem, 2021)
The source made the active and inactive calls. The calls are words filed in the database; no cut-off is given here.

Assays:
[1] = Inhibition of bovine brain tubulin polymerization incubated for 15 mins followed by GTP addition and measured after 20 mins by spectrophotometric method; format: tissue-based, Bos taurus
A549 = assay: cells; settings: Homo sapiens, A549, 72 h
Description: Antiproliferative activity against human A549 cells assessed as reduction in cell viability after 72 hrs by MTT assay

HeLa [2] = assay: Induction of apoptosis in human HeLa cells assessed as decrease in cleaved XIAP protein expression at 50 nM after 24 to 48 hrs by Western blot analysis; format: functional, cell-based; settings: time 24-48 hrs
HeLa [3] = assay: Induction of cell cycle arrest in human HeLa cells assessed as decrease in accumulation at G1 phase at 1 to 100 nM after 24 hrs by propidium iodide staining based flow cytometric analysis; format: functional; settings: dose 1-100 nM
HeLa [4] = assay: Induction of apoptosis in human HeLa cells assessed as increase in cleaved PARP level at 25 nM after 24 hrs by Western blot analysis; format: functional, cell-based
PBL [5] = assay: Cytotoxicity against PHA-induced human PBL cells assessed reduction in cell viability after 72 hrs by MTT assay; format: cell-based
CCRF-CEM = assay: Antiproliferative activity against human CCRF-CEM cells assessed as reduction in cell viability after 72 hrs by MTT assay; format: functional, cell-based
EO771 [6] = assay: Antitumour activity against mouse EO771 cells allografted in ip dosed C57BL/6 mouse assessed as reduction in tumor mass; format: functional, organism-based; settings: dose lower 5.0 mg/kg, dose upper […]
SEM cells = assay: Antiproliferative activity against human SEM cells assessed as reduction in cell viability after 72 hrs by MTT assay; format: functional, cell-based
Bos taurus [7] = species: Bos taurus; assay: Displacement of [3H]colchicine from bovine brain tubulin at 0.5 uM by DEAE-cellulose filter method relative to control; format: tissue-based
HeLa [8] = assay: Induction of apoptosis in human HeLa cells assessed as decrease in cleaved Mcl-1 protein expression at 50 nM after 24 to 48 hrs by Western blot analysis; format: functional, cell-based; settings: time 24-48 hrs
HT-29 [9] = assay: Induction of cell cycle arrest in human HT-29 cells assessed as increase in accumulation at G2/M phase after 24 hrs by propidium iodide staining based flow cytometric analysis; format: functional; settings: dose 1-100 nM
HeLa [10] = assay: Induction of cell cycle arrest in human HeLa cells assessed as decrease in cdc25c protein expression at 50 nM after 24 to 48 hrs by Western blot analysis; format: functional, cell-based; settings: time 24-48 hrs
HeLa [11] = assay: Induction of apoptosis in human HeLa cells at 50 nM after 24 to 48 hrs by annexinV-FITC/propidium iodide staining based flow cytometric analysis; format: functional, cell-based; settings: time 24-48 hrs
HeLa [12] = assay: Induction of ROS generation in human HeLa cells assessed as increase in DCF fluorescence at 50 nM after 24 to 48 hrs by H2-DCFDA staining based flow cytometric analysis; format: functional, cell-based; settings: time 24-48 hrs
Bos taurus [13] = species: Bos taurus; assay: Displacement of [3H]colchicine from bovine brain tubulin at 5 uM by DEAE-cellulose filter method relative to control; format: tissue-based
PBL [14] = assay: Cytotoxicity against human PBL cells assessed reduction in cell viability after 72 hrs by MTT assay; format: cell-based
EO771 [15] = assay: Antitumour activity against mouse EO771 cells allografted in C57BL/6 mouse assessed as reduction in tumor volume at 5 mg/kg, ip; format: functional, organism-based
HT-29 [16] = assay: cells; settings: Homo sapiens, HT-29, 72 h
HeLa [17] = assay: cells; settings: Homo sapiens, 72 h
Description: Antiproliferative activity against human HeLa cells assessed as reduction in cell viability after 72 hrs by MTT assay

[18] = target: Cyclin-dependent kinase 1 (Homo sapiens) (UniProt P06493); assay: Inhibition of cdc2 phosphorylation at Y15 residues in human HeLa cells at 25 to 50 nM after 24 to 48 hrs by Western blot analysis; format: cell-based; settings: dose 25-50 nM, time 24-48 hrs
HT-29 [19] = assay: Induction of cell cycle arrest in human HT-29 cells assessed as decrease in accumulation at G1 phase at 1 to 100 nM after 24 hrs by propidium iodide staining based flow cytometric analysis; format: functional; settings: dose 1-100 nM
HeLa [20] = assay: Induction of apoptosis in human HeLa cells assessed as decrease in cleaved Bcl-2 protein expression at 50 nM after 24 to 48 hrs by Western blot analysis; format: functional, cell-based; settings: time 24-48 hrs
HeLa [21] = assay: Induction of cell cycle arrest in human HeLa cells assessed as decrease in accumulation at S phase at 1 to 100 nM after 24 hrs by propidium iodide staining based flow cytometric analysis; format: functional; settings: dose 1-100 nM
HT-29 [22] = assay: Induction of cell cycle arrest in human HT-29 cells assessed as decrease in accumulation at S phase at 1 to 100 nM after 24 hrs by propidium iodide staining based flow cytometric analysis; format: functional; settings: dose 1-100 nM
HL-60 = assay: Antiproliferative activity against human HL-60 cells assessed as reduction in cell viability after 72 hrs by MTT assay; format: functional, cell-based; settings: HL-60, 72 h
HeLa [23] = assay: Induction of cell cycle arrest in human HeLa cells assessed as increase in accumulation at G2/M phase after 24 hrs by propidium iodide staining based flow cytometric analysis; format: functional; settings: dose 1-100 nM
[24] = Toxicity in C57BL/6 mouse allografted with mouse EO771 cells assessed as reduction in body weight at 15 mg/kg, ip; format: organism-based; settings: in vivo
HeLa [25] = assay: Induction of cell cycle arrest in human HeLa cells assessed as increase in cyclin B1 protein expression at 50 nM after 24 to 48 hrs by Western blot analysis; format: functional, cell-based; settings: time 24-48 hrs

Sequence of Cyclin-dependent kinase 1 (Homo sapiens) (P06493 whole entry, looked up): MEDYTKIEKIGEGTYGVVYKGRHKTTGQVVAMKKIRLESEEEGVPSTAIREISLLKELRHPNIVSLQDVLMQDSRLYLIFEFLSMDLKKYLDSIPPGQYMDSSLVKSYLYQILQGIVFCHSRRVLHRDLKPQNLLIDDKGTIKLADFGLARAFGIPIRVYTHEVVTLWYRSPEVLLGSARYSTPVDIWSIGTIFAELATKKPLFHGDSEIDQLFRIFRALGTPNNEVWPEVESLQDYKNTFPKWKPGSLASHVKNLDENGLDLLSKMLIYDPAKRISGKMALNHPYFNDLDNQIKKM

IC50 [1]: 660 nM
IC50 (A549): 28 nM
IC50 (CCRF-CEM): 7.5 nM
inhibition (Bos taurus [7]): 83%
inhibition (Bos taurus [13]): 93%
IC50 (HT-29 [16]): 28 nM
IC50 (HeLa [17]): 26 nM
inhibition [18]: Active
IC50 (HL-60): 168 nM
SMILES: CCOc1ccc(-c2c[nH]cc2-c2cc(OC)c(OC)c(OC)c2)cc1F
Activity (HeLa [2]): Active
Activity (HeLa [3]): Active
Activity (HeLa [4]): Active
IC50 (PBL [5]): > 10000 nM
Activity (EO771 [6]): Dose-dependent effect
IC50 (SEM cells): 1.7 nM
Activity (HeLa [8]): Active
Activity (HT-29 [9]): Dose-dependent effect
Activity (HeLa [10]): Active
Activity (HeLa [11]): Active
Activity (HeLa [12]): Active
IC50 (PBL [14]): > 10000 nM
Activity (EO771 [15]): Dose-dependent effect
Activity (HT-29 [19]): Active
Activity (HeLa [20]): Active
Activity (HeLa [21]): Active
Activity (HT-29 [22]): Active
Activity (HeLa [23]): Dose-dependent effect
Activity [24]: Non-Toxic
Activity (HeLa [25]): Active
